# Assay results published in ChEMBL document CHEMBL1201862, “PubChem BioAssay data set” (2004).
#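 Step 1: Grow cells in 96-well plates. Step 2: Expose to compound for 48 hours at 5 concentrations. Step 3: Interpolate endpoints linearly; if unreached, use highest concentration. At the GI50, growth is halved.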 Activity calls are given as the source filed them. Cut-off read from the data, not from the text of the source: active = GI50 up to about 1.1 µM and inactive = higher.
# Experiments:
# Experiment in all cases: inhibition of tumour cell growth, NCI panel, 48 h
# SW-620 = tested on: SW-620
# NCI-H522 = tested on: NCI-H522
# NCI-H23 = tested on: NCI-H23
# U-251 = tested on: U-251
# DU-145 = tested on: DU-145
# UACC-257 = tested on: UACC-257
# MDA-MB-231 = tested on: MDA-MB-231
# CCRF-CEM = tested on: CCRF-CEM
# SK-OV-3 = tested on: SK-OV-3
# SF-295 = tested on: SF-295
# NCI/ADR-RES = tested on: NCI/ADR-RES
# OVCAR-3 = tested on: OVCAR-3
# HCC 2998 = tested on: HCC 2998
# A498 = tested on: A498
# OVCAR-4 = tested on: OVCAR-4
# UACC-62 = tested on: UACC-62
# TK-10 = tested on: TK-10
# Hs-578T = tested on: Hs-578T
# IGROV-1 = tested on: IGROV-1
# Malme-3M = tested on: Malme-3M
# KM12 = tested on: KM12
# ACHN = tested on: ACHN
# RXF 393 = tested on: RXF 393
# MOLT-4 = tested on: MOLT-4
# 786-0 = tested on: 786-0
# SK-MEL-28 = tested on: SK-MEL-28
# PC-3 = tested on: PC-3
# OVCAR-5 = tested on: OVCAR-5
# HCT-116 = tested on: HCT-116
# NCI-H226 = tested on: NCI-H226
# SK-MEL-5 = tested on: SK-MEL-5
# UO-31 = tested on: UO-31
# SR = tested on: SR
# BT-549 = tested on: BT-549
# SF-268 = tested on: SF-268
# HOP-62 = tested on: HOP-62
# MCF7 = tested on: MCF7
# COLO 205 = tested on: COLO 205
# OVCAR-8 = tested on: OVCAR-8
# SN12C = tested on: SN12C
# MDA-N = tested on: MDA-N
# A549 = tested on: A549
# HOP-92 = tested on: HOP-92
# SNB-19 = tested on: SNB-19
# K562 = tested on: K562
# RPMI-8226 = tested on: RPMI-8226
# SF-539 = tested on: SF-539
# NCI-H460 = tested on: NCI-H460
# EKVX = tested on: EKVX
# SK-MEL-2 = tested on: SK-MEL-2
# LOX IMVI = tested on: LOX IMVI
# MDA-MB-435 = tested on: MDA-MB-435
# CAKI-1 = tested on: CAKI-1
# HT-29 = tested on: HT-29
# HCT-15 = tested on: HCT-15
# T47D = tested on: T47D
# SNB-75 = tested on: SNB-75
# M14 = tested on: M14
# HL-60 = tested on: HL-60
smiles,measurement,setting,value
COc1ccc2c(C)cc(N/N=C(\C)C=O)nc2c1,GI50,SW-620,7.57 µM (inactive)
same,GI50,NCI-H522,12.6 µM (inactive)
same,GI50,NCI-H23,11.8 µM (inactive)
same,GI50,U-251,11.4 µM (inactive)
same,GI50,DU-145,11.7 µM (inactive)
same,GI50,UACC-257,15.8 µM (inactive)
same,GI50,MDA-MB-231,9.33 µM (inactive)
same,GI50,CCRF-CEM,1.82 µM (inactive)
same,GI50,SK-OV-3,11.2 µM (inactive)
same,GI50,SF-295,10 µM (inactive)
same,GI50,NCI/ADR-RES,11.7 µM (inactive)
same,GI50,OVCAR-3,2.25 µM (inactive)
same,GI50,HCC 2998,11.9 µM (inactive)
same,GI50,A498,14.5 µM (inactive)
same,GI50,OVCAR-4,11.2 µM (inactive)
same,GI50,UACC-62,12.6 µM (inactive)
same,GI50,TK-10,15.7 µM (inactive)
same,GI50,Hs-578T,15.5 µM (inactive)
same,GI50,IGROV-1,16.5 µM (inactive)
same,GI50,Malme-3M,12 µM (inactive)
same,GI50,KM12,12.3 µM (inactive)
same,GI50,ACHN,15.6 µM (inactive)
same,GI50,RXF 393,10.6 µM (inactive)
same,GI50,MOLT-4,4.51 µM (inactive)
same,GI50,786-0,11.6 µM (inactive)
same,GI50,SK-MEL-28,13.7 µM (inactive)
same,GI50,PC-3,9.2 µM (inactive)
same,GI50,OVCAR-5,13 µM (inactive)
same,GI50,HCT-116,11 µM (inactive)
same,GI50,NCI-H226,10.5 µM (inactive)
same,GI50,SK-MEL-5,12.7 µM (inactive)
same,GI50,UO-31,13.2 µM (inactive)
same,GI50,SR,1.64 µM (inactive)
same,GI50,BT-549,15.1 µM (inactive)
same,GI50,SF-268,13.8 µM (inactive)
same,GI50,HOP-62,8.79 µM (inactive)
same,GI50,MCF7,8.79 µM (inactive)
same,GI50,COLO 205,13.8 µM (inactive)
same,GI50,OVCAR-8,11.5 µM (inactive)
same,GI50,SN12C,11.2 µM (inactive)
same,GI50,MDA-N,10.8 µM (inactive)
same,GI50,A549,18.5 µM (inactive)
same,GI50,HOP-92,10.5 µM (inactive)
same,GI50,SNB-19,13 µM (inactive)
same,GI50,K562,2.47 µM (inactive)
same,GI50,RPMI-8226,6.31 µM (inactive)
same,GI50,SF-539,6.25 µM (inactive)
same,GI50,NCI-H460,8.99 µM (inactive)
same,GI50,EKVX,16.6 µM (inactive)
same,GI50,SK-MEL-2,13.4 µM (inactive)
same,GI50,LOX IMVI,10.2 µM (inactive)
same,GI50,MDA-MB-435,10.8 µM (inactive)
same,GI50,CAKI-1,14.4 µM (inactive)
same,GI50,HT-29,12.2 µM (inactive)
same,GI50,HCT-15,3.78 µM
same,GI50,T47D,15.5 µM (inactive)
same,GI50,SNB-75,13.6 µM (inactive)
same,GI50,M14,13.6 µM (inactive)
COC(=O)CCC(=O)NC1=C(NCc2ccccc2)C(=O)c2ccccc2C1=O,GI50,SW-620,19.9 µM (inactive)
same,GI50,NCI-H522,19.1 µM (inactive)
same,GI50,NCI-H23,21.3 µM (inactive)
same,GI50,U-251,28.9 µM (inactive)
same,GI50,DU-145,45.3 µM (inactive)
same,GI50,UACC-257,16.6 µM (inactive)
same,GI50,MDA-MB-231,23.4 µM (inactive)
same,GI50,CCRF-CEM,35.8 µM (inactive)
same,GI50,SK-OV-3,57.3 µM (inactive)
same,GI50,SF-295,26.7 µM (inactive)
same,GI50,NCI/ADR-RES,29.3 µM (inactive)
same,GI50,OVCAR-3,3.95 µM (inactive)
same,GI50,HCC 2998,37.2 µM (inactive)
same,GI50,HL-60,21.8 µM (inactive)
same,GI50,A498,67.9 µM (inactive)
same,GI50,OVCAR-4,18.5 µM (inactive)
same,GI50,UACC-62,17.3 µM (inactive)
same,GI50,TK-10,45.3 µM (inactive)
same,GI50,Hs-578T,> 100 µM (inactive)
same,GI50,IGROV-1,17.7 µM (inactive)
same,GI50,KM12,24.8 µM (inactive)
same,GI50,ACHN,27.4 µM (inactive)
same,GI50,RXF 393,34.7 µM (inactive)
same,GI50,MOLT-4,34 µM (inactive)
same,GI50,786-0,38.5 µM (inactive)
same,GI50,SK-MEL-28,88.3 µM (inactive)
same,GI50,PC-3,25.2 µM (inactive)
same,GI50,OVCAR-5,29.5 µM (inactive)
same,GI50,HCT-116,30.3 µM (inactive)
same,GI50,NCI-H226,85.1 µM (inactive)
same,GI50,SK-MEL-5,12.1 µM (inactive)
same,GI50,UO-31,32.6 µM (inactive)
same,GI50,SR,27.9 µM (inactive)
same,GI50,BT-549,46.7 µM (inactive)
same,GI50,SF-268,39.8 µM (inactive)
same,GI50,MCF7,17.3 µM (inactive)
same,GI50,COLO 205,20.4 µM (inactive)
same,GI50,OVCAR-8,27.7 µM (inactive)
same,GI50,SN12C,25.5 µM (inactive)
same,GI50,MDA-N,16 µM (inactive)
same,GI50,A549,26.2 µM (inactive)
same,GI50,HOP-92,15.7 µM (inactive)
same,GI50,SNB-19,21.7 µM (inactive)
same,GI50,K562,33.9 µM (inactive)
same,GI50,RPMI-8226,34 µM (inactive)
same,GI50,SF-539,20.1 µM (inactive)
same,GI50,NCI-H460,18 µM (inactive)
same,GI50,EKVX,32.9 µM (inactive)
same,GI50,SK-MEL-2,18.8 µM (inactive)
same,GI50,LOX IMVI,21.8 µM (inactive)
same,GI50,MDA-MB-435,18.9 µM (inactive)
same,GI50,CAKI-1,26.2 µM (inactive)
same,GI50,HT-29,25.7 µM (inactive)
same,GI50,HCT-15,17 µM
same,GI50,T47D,34 µM (inactive)
same,GI50,SNB-75,78.2 µM (inactive)
same,GI50,M14,18.7 µM (inactive)
